Measurements as given in PubChem BioAssay (NCI).
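Growth conditions: 96-well plates. Treatment: test compound, 48 hours, 5 concentrations. Analysis: linear interpolation between bracketing concentrations; unreached endpoints set to highest concentration. TGI marks complete inhibition of growth.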

What was measured:
Experiment in all cases: growth of human tumour cells (NCI), 48 h
786-0 renal = tested on: 786-0 renal
A498 renal = tested on: A498 renal
A549 NSCLC = tested on: A549 NSCLC
ACHN renal = tested on: ACHN renal
BT-549 breast = tested on: BT-549 breast
CAKI-1 renal = tested on: CAKI-1 renal
CCRF-CEM leukemia = tested on: CCRF-CEM leukemia
COLO 205 colon = tested on: COLO 205 colon
DU-145 prostate = tested on: DU-145 prostate
EKVX NSCLC = tested on: EKVX NSCLC
HCC-2998 colon = tested on: HCC-2998 colon
HCT-116 colon = tested on: HCT-116 colon
HCT-15 colon = tested on: HCT-15 colon
HL-60(TB) leukemia = tested on: HL-60(TB) leukemia
HOP-62 NSCLC = tested on: HOP-62 NSCLC
HOP-92 NSCLC = tested on: HOP-92 NSCLC
HS 578T breast = tested on: HS 578T breast
HT29 colon = tested on: HT29 colon
IGROV1 ovarian = tested on: IGROV1 ovarian
K-562 leukemia = tested on: K-562 leukemia
KM12 colon = tested on: KM12 colon
LOX IMVI melanoma = tested on: LOX IMVI melanoma
M14 melanoma = tested on: M14 melanoma
MDA-MB-231 breast = tested on: MDA-MB-231 breast
MDA-MB-435 = tested on: MDA-MB-435
MDA-N = tested on: MDA-N
MOLT-4 leukemia = tested on: MOLT-4 leukemia
NCI-H226 lung = tested on: NCI-H226 lung
NCI-H23 lung = tested on: NCI-H23 lung
NCI-H460 lung = tested on: NCI-H460 lung
NCI-H522 lung = tested on: NCI-H522 lung
NCI/ADR-RES ovarian = tested on: NCI/ADR-RES ovarian
OVCAR-3 ovarian = tested on: OVCAR-3 ovarian
OVCAR-4 ovarian = tested on: OVCAR-4 ovarian
OVCAR-5 ovarian = tested on: OVCAR-5 ovarian
OVCAR-8 ovarian = tested on: OVCAR-8 ovarian
PC-3 prostate = tested on: PC-3 prostate
RPMI-8226 leukemia = tested on: RPMI-8226 leukemia
RXF 393 renal = tested on: RXF 393 renal
SF-268 CNS = tested on: SF-268 CNS
SF-295 CNS = tested on: SF-295 CNS
SK-MEL-2 melanoma = tested on: SK-MEL-2 melanoma
SK-MEL-28 melanoma = tested on: SK-MEL-28 melanoma
SK-MEL-5 melanoma = tested on: SK-MEL-5 melanoma
SK-OV-3 ovarian = tested on: SK-OV-3 ovarian
SN12C renal = tested on: SN12C renal
SNB-19 CNS = tested on: SNB-19 CNS
SNB-75 CNS = tested on: SNB-75 CNS
SR leukemia = tested on: SR leukemia
SW-620 colon = tested on: SW-620 colon
T-47D breast = tested on: T-47D breast
TK-10 renal = tested on: TK-10 renal
U251 CNS = tested on: U251 CNS
UACC-257 melanoma = tested on: UACC-257 melanoma
UACC-62 melanoma = tested on: UACC-62 melanoma
UO-31 renal = tested on: UO-31 renal

O=C1OC(=O)C2=C1C(c1cccs1)C=C(c1cccnc1)N2c1ccncc1 (stereo unspecified)
TGI (786-0 renal): 32.9 µM
TGI (A498 renal): 51.5 µM
TGI (A549 NSCLC): 40.8 µM
TGI (ACHN renal): 30.1 µM
TGI (BT-549 breast): 36.1 µM
TGI (CAKI-1 renal): 29.7 µM
TGI (CCRF-CEM leukemia): 50 µM
TGI (COLO 205 colon): 31.8 µM
TGI (DU-145 prostate): 30.2 µM
TGI (EKVX NSCLC): 31.4 µM
TGI (HCC-2998 colon): 27.1 µM
TGI (HCT-116 colon): 27.3 µM
TGI (HCT-15 colon): 30.1 µM
TGI (HL-60(TB) leukemia): 64.4 µM
TGI (HOP-62 NSCLC): 41.7 µM
TGI (HOP-92 NSCLC): 27.1 µM
TGI (HS 578T breast): 71.4 µM
TGI (HT29 colon): 30.4 µM
TGI (IGROV1 ovarian): 29.3 µM
TGI (K-562 leukemia): 84.6 µM
TGI (KM12 colon): 26.1 µM
TGI (LOX IMVI melanoma): 27 µM
TGI (M14 melanoma): 27 µM
TGI (MDA-MB-231 breast): 39.6 µM
TGI (MDA-MB-435): 49.9 µM
TGI (MDA-N): 33.9 µM
TGI (MOLT-4 leukemia): 73.8 µM
TGI (NCI-H226 lung): 56.8 µM
TGI (NCI-H23 lung): 34.7 µM
TGI (NCI-H460 lung): 32.1 µM
TGI (NCI-H522 lung): 29.4 µM
TGI (NCI/ADR-RES ovarian): 82.3 µM
TGI (OVCAR-3 ovarian): 29.3 µM
TGI (OVCAR-4 ovarian): 36 µM
TGI (OVCAR-5 ovarian): 28.5 µM
TGI (OVCAR-8 ovarian): 48.7 µM
TGI (PC-3 prostate): 29.5 µM
TGI (RPMI-8226 leukemia): 60.2 µM
TGI (RXF 393 renal): 34.5 µM
TGI (SF-268 CNS): 48.2 µM
TGI (SF-295 CNS): 35.3 µM
TGI (SK-MEL-2 melanoma): 32.5 µM
TGI (SK-MEL-28 melanoma): 75.2 µM
TGI (SK-MEL-5 melanoma): 40.2 µM
TGI (SK-OV-3 ovarian): 68.5 µM
TGI (SN12C renal): 32.9 µM
TGI (SNB-19 CNS): 38.9 µM
TGI (SNB-75 CNS): 35.8 µM
TGI (SR leukemia): 8.73 µM
TGI (SW-620 colon): 58.1 µM
TGI (T-47D breast): 37 µM
TGI (TK-10 renal): 31.6 µM
TGI (U251 CNS): 35.4 µM
TGI (UACC-257 melanoma): 24.7 µM
TGI (UACC-62 melanoma): 37.3 µM
TGI (UO-31 renal): 30.3 µM

O=C1OC(c2ccccc2)=N/C1=C\c1ccc(F)cc1
TGI (786-0 renal): > 100 µM
TGI (A498 renal): > 100 µM
TGI (A549 NSCLC): > 100 µM
TGI (ACHN renal): > 100 µM
TGI (BT-549 breast): > 100 µM
TGI (CAKI-1 renal): > 100 µM
TGI (CCRF-CEM leukemia): > 100 µM
TGI (COLO 205 colon): > 100 µM
TGI (DU-145 prostate): > 100 µM
TGI (EKVX NSCLC): > 100 µM
TGI (HCC-2998 colon): > 100 µM
TGI (HCT-116 colon): > 100 µM
TGI (HCT-15 colon): > 100 µM
TGI (HL-60(TB) leukemia): > 100 µM
TGI (HOP-62 NSCLC): > 100 µM
TGI (HOP-92 NSCLC): > 100 µM
TGI (HS 578T breast): > 100 µM
TGI (HT29 colon): > 100 µM
TGI (IGROV1 ovarian): > 100 µM
TGI (K-562 leukemia): > 100 µM
TGI (KM12 colon): > 100 µM
TGI (LOX IMVI melanoma): > 100 µM
TGI (M14 melanoma): > 100 µM
TGI (MDA-MB-231 breast): > 100 µM
TGI (MDA-MB-435): > 100 µM
TGI (MDA-N): > 100 µM
TGI (MOLT-4 leukemia): > 100 µM
TGI (NCI-H226 lung): > 100 µM
TGI (NCI-H23 lung): > 100 µM
TGI (NCI-H460 lung): > 100 µM
TGI (NCI-H522 lung): > 100 µM
TGI (NCI/ADR-RES ovarian): > 100 µM
TGI (OVCAR-3 ovarian): > 100 µM
TGI (OVCAR-4 ovarian): > 100 µM
TGI (OVCAR-5 ovarian): > 100 µM
TGI (OVCAR-8 ovarian): > 100 µM
TGI (PC-3 prostate): > 100 µM
TGI (RPMI-8226 leukemia): > 100 µM
TGI (RXF 393 renal): > 100 µM
TGI (SF-268 CNS): > 100 µM
TGI (SK-MEL-2 melanoma): > 100 µM
TGI (SK-MEL-28 melanoma): > 100 µM
TGI (SK-MEL-5 melanoma): > 100 µM
TGI (SK-OV-3 ovarian): > 100 µM
TGI (SN12C renal): > 100 µM
TGI (SNB-19 CNS): > 100 µM
TGI (SNB-75 CNS): > 100 µM
TGI (SR leukemia): > 100 µM
TGI (SW-620 colon): > 100 µM
TGI (T-47D breast): > 100 µM
TGI (TK-10 renal): > 100 µM
TGI (U251 CNS): > 100 µM
TGI (UACC-257 melanoma): > 100 µM
TGI (UACC-62 melanoma): > 100 µM
TGI (UO-31 renal): > 100 µM
